Literature values in patent US6376468B1, “Protein:prenyl transferase inhibitors” (Nederlandse Organisatie Voor …, priority 1999, dated 2002).

Target: T1, Ras farnesyl transferase from human colon carcinoma (Homo sapiens, UniProt P49354+P49356)
T1 construct: host or cells: human colon carcinoma
Settings: J. Biol. Chem. 268 (1993), 20695-98

- IC50: 60 nM
Structure (SMILES): CSCCC(NC(=O)c1cccc(CNC(=O)C(N)CS)c1)C(=O)O (stereo not shown) [Cys-NH-CH2-mC6H4-CO-Met]
